Experiments:
[1] = test system: Cell cycle (G1 attenuation); experiment: Cell cycle (G1 attenuation); format: cell-based
[2] = target: hERG (Homo sapiens, UniProt Q12809); experiment: hERG IC50
[3] = test system: 72 receptors and enzymes; experiment: CEREP screen; settings: at 10 μM across 72 receptors and enzymes
[4] = i.v. and p.o. exposure study, rat; format: in vivo
Protocol: (§1) Mouse, rat and dog studies were conducted to assess i.v. and p.o. (oral) exposure.

[5] = target: MetAP1 (Homo sapiens, UniProt P53582); experiment: MetAP1 IC50; format: biochemical; settings: second value of the cell; read-out: MetAP2/MetAP1 IC50 (nM): MetAP1
[6] = test system: CYP (isoform not given); experiment: CYP IC50, HLM; format: in vitro ADME; settings: human, human liver microsomes
[7] = target: CYP3A4 (Homo sapiens, UniProt P08684); experiment: CYP3A4 inhibition with pre-incubation; format: in vitro ADME; settings: footnote to CYP IC50, HLM
Chain of CYP3A4 (P08684 whole entry): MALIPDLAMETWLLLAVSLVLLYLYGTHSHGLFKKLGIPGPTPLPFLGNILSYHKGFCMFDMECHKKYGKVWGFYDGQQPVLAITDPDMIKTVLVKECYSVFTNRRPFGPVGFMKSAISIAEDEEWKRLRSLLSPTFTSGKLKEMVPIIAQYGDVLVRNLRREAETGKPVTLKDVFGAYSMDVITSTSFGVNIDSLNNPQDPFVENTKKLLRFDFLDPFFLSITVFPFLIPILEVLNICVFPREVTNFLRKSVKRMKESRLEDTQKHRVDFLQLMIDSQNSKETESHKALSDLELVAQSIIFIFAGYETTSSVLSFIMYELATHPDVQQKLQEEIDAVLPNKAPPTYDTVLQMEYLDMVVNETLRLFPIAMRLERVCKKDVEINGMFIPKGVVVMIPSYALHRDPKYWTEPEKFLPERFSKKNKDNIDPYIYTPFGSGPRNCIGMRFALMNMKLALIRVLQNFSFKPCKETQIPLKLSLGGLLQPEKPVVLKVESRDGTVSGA

[8] = i.v. and p.o. exposure study, mouse; format: in vivo
Protocol: as §1

[9] = Plasma protein binding, rat; format: in vitro ADME; settings: read-out: Plasma protein binding (h/r/m, %): r (converted)
[10] = i.v. and p.o. exposure study, dog; format: in vivo; settings: plasma
Protocol: as §1

[11] = test system: HT1080; experiment: HT1080 EC50; format: cell-based; settings: Homo sapiens, HT-1080; second of two values 28/8, key not given
[12] = Plasma protein binding, human; format: in vitro ADME; settings: read-out: Plasma protein binding (h/r/m, %): h (converted)
[13] = AMES
[14] = liver/plasma, po, read-out: liver/plasma ratio
[15] = plasma, iv, read-out: Plasma T1/2 (converted)

Chain of hERG (Q12809 whole entry): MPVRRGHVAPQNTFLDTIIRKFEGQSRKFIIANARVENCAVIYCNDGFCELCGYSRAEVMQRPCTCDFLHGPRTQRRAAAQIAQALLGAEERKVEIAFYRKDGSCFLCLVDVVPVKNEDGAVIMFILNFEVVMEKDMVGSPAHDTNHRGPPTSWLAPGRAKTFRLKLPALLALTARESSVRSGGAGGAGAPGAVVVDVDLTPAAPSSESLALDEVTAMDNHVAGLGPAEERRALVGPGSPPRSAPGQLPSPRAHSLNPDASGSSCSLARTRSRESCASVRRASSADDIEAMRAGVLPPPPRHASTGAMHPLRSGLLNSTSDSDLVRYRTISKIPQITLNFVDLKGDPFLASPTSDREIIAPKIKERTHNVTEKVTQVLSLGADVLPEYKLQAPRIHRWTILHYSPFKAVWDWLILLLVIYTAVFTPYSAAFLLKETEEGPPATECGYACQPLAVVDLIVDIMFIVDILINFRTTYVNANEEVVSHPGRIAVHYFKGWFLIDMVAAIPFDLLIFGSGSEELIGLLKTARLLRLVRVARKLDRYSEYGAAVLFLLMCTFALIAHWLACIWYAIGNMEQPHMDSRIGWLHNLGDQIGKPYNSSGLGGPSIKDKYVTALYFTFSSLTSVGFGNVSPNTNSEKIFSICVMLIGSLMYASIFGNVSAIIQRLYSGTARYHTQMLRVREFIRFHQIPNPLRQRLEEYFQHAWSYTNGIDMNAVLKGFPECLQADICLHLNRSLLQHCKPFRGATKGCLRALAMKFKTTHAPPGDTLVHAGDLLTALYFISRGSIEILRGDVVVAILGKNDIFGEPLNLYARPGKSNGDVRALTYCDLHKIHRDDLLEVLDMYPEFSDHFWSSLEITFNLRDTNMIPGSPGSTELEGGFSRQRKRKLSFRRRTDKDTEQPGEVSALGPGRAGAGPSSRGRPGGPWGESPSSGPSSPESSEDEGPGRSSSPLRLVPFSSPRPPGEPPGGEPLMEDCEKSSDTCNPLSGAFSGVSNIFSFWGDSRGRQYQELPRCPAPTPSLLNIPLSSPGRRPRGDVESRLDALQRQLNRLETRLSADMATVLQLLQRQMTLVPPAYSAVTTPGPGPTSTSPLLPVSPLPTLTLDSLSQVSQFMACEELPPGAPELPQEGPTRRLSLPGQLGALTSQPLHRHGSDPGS

Question: What does the source list for `CCN(CC)C/C=C\c1cc(F)ccc1S(=O)(=O)Nc1ccc2c(c1C(=O)O)OC[C@@H]1C[C@H]21` (single isomer, unassigned) [Example 12]?
Answer: Cell cycle (G1 attenuation, nM) [1]: 3 nM; IC50 [2]: > 33 µM; CEREP screen, inhibition [3]: <35% inhibition at 10 μM; Kp [4, 14]: 39; clearance ([4]; plasma, iv): 54 mL/min/kg; half-life [4, 15]: 1.2 h; Vd ([4]; plasma, iv, read-out: Vss): 3.4 L/kg; AUC ([4]; plasma, po): 356 ng·h/mL; bioavailability ([4]; plasma, po): 22%; IC50 [5]: 50000 nM; IC50 [6]: > 10 µM; CYP3A4 signal with pre-incubation [7]: *CYP3A4 signal observed with pre-incubation; Kp [8, 14]: 38; clearance ([8]; plasma, iv): 126 mL/min/kg; half-life [8, 15]: 0.9 h; Vd ([8]; plasma, iv, read-out: Vss): 3.1 L/kg; AUC ([8]; plasma, po): 497 ng·h/mL; bioavailability ([8]; plasma, po): 53%; fraction unbound [9]: 0.189; clearance ([10]; iv): 14 mL/min/kg; half-life ([10]; iv, read-out: Plasma T1/2 (converted)): 3.6 h; Vd ([10]; iv, read-out: Vss): 1.3 L/kg; AUC ([10]; po): 711 ng·h/mL; bioavailability ([10]; po): 20%; EC50 [11]: 0.008 µM; fraction unbound [12]: 0.228; AMES [13]: negative
